These results are taken from US20080076729A1, “Interferon-beta gene therapy using an improved, regulated expression system” (Schering Aktiengesellachaft, priority 2005, published 2008).

The subject of the experiment is IP-10. Kind of experiment: IP-10 chemokine level in plasma/serum of treated mice by ELISA. Format: in vivo. Here is the method: FIG. 7 illustrates induction levels of IP-10 (A) and JE (B) following i.v. or i.m. injection of murine IFN-β protein. C57BL/6 mice were administered 15, 150, or 500 ng of purified recombinant mIFN-β protein (specific activity=2.0×10^8 units/mg) by either i.v. (via tail vein) or i.m. injection (n=3 mice per group). The mice were bled at 2, 4, 6, 12, 24, and 48 hours post-injection, and the plasma levels of IP-10 and JE were measured by ELISA (R&D Systems).
FIG. 8 illustrates the induction of IP-10 following intramuscular injection of AAV-1-mIFN-β DNA or mIFN-β plasmid DNA with electroporation (EP) in mice. […] Mice were bled at the indicated time points and IP-10 levels in plasma were determined by ELISA. […]
• A. Development of mIFN-β Biomarkers: For higher sensitivity in detection of murine IFN-β (mIFN-β) activity in vivo, biomarkers for mIFN-β activity were identified in mice after injection of mIFN-β protein or mIFN-β encoded gene therapy vectors. […] In the present study, the expression of the MxA mouse homologue, Mx1, (see e.g., Hug, H et al. Mol Cell Biol 8: 3065-79; Pavlovic, J (1993) Ciba Found Symp 176: 233-43) isolated from murine peripheral blood monocytes (PBMC's) was used to detect the presence of biologically active mIFN-β. • A quantitative PCR/RT-PCR assay was developed to quantitate the levels of Mx1 mRNA in murine PBMC's. […]

As for “mIFN-β: purified recombinant murine interferon-beta protein”, the “time by which plasma IP-10 dropped to background” value (bolus protein, each of three doses) is no more than 24 h. Moreover, the IP-10 levels increase (high dose (500 ng) delivered i.v., 2 hours) was found to be 3000 fold.
